Results on 21 compounds are retold here after US7163941B2, “Pyrido[2,3-d]pyrimidin-7-carboxylic acid derivatives, their manufacture and use as pharmaceutical agents” (Hoffmann-La Roche Inc., priority 2003, dated 2007).

For one assay, the target named is T1, Lck (p56^lck, active) (Homo sapiens, UniProt P06239).
T1 construct: purchased Upstate (UBI)
Put plainly: SRC-Inhibitor-Assay (time-resolved fluorescence), Lck enzyme. The assay is classed as biochemical. The conditions noted are these: ATP 5 μM, peptide 10 μM, enzyme 2.5 U/ml, pre-incubation 15 min at 15° C. Here is the method: (§1) The activity of the compounds according to this invention as inhibitors for the src-family tyrosine kinases was shown by using the following assay.
(§2) SRC-Inhibitor-Assay Parameters:
(§3) • Reaction mixture: • ATP 5 μM • Peptide (R+Ja133-Ro): 10 μM • Ja133-Ro 196 nM • Ro 9.8 μM • PT66 230 ng/ml • Assay buffer: 4 mM MgCl2 • 2 mM TCEP • 50 mM HEPES • 0,1% Tween 20 • pH 7.3 • Enzyme: 2.5 U/ml • Inhibitor: max. 25 μM • min. 0.42 nM Material: • Eu-labelled phosphotyrosine antibody: -for Lck Cisbio Mab PT66-K, • for Src EG&G Wallac PT66 Eu-W1024 (all commercially available). • Peptides: Ro: NH2-A-E-E-E-I-Y-G-E-F-E-A-K-K-K-K-CONH2 (SEQ ID NO: 1), and • Ja133-Ro: Ja133-G-Aminocaprylic acid-A-E-E-E-I-Y-G-E-F-E-A-K-K-K-K-CONH2 (SEQ ID NO: 2), wherein Ja133 is LightCycler-Red 640-N-hydroxy succinimide ester; • whereby both peptides were synthesized by an optimized solid phase peptide synthesis protocol (Merrifield, Fed. Proc. Fed. Amer. Soc. Exp. Biol. 21 (1962) 412) on a Zinsser SMP350 peptide synthesizer. Shortly, the peptide was assembled on 160 mg (22.8 μmol scale) of a Rink-Linker modified polystyrene solid phase by repeatedly conjugating an twenty fold excess of aminoacids each protected by temporary piperidine labile Fmoc- and permanent acid labile tert-Bu-, BOC- and Otert-Bu-groups depending on the side chain function. The substrate sequence AEEEIYGEFEAKKKK (SEQ ID NO: 1) was N-terminal additionally mounted with the spacer amino acids Aminocaprylic acid and Glycin. After cleavage of the N-terminal temporary protecting group the still attached and protected peptide was labeled with a 1.5 fold amount of LightCycler-Red 640-N-hydroxy succinimide ester (purchased by Roche Diagnostics GmbH) and triethylamine. After 3 hrs. the resin was washed with Dimethylformamide and Isopropanol until the eluates of the blue resin got colo-rless. […] The substrate was finally isolated by a preparative reverse phase HPLC purification. The purification yielded 12.2 mg RP-HPLC single peak pure blue material (lyophilisate). The identity was proven by MALDI mass spectroscopy [2720.0]. • Enzymes: Upstate Lck (p56^lck, active), Upstate Src (p60^c-src, partially purified) were purchased from UBI. • Time-resolved Fluorescence Assay: Reader: Perkin Elmer, Wallac Viktor 1420-040 multilabel counter; Liquid handling system: Beckman Coulter, Biomek 2000. ATP, Tween 20, HEPES were purchased from Roche Molecular Biochemicals, MgCl2 and MnCl2 were purchased from Merck Eurolab, TCEP was purchased from Pierce, 384 Well low volume fluorescence plates was purchased from Falcon. Assay Description:
(§4) At first the enzyme is pre-incubated for 15 min. at 15° C. in aqueous solution with corresponding amounts of inhibitors according to this invention. Then the phosphorylation reaction is started by adding a reaction mixture, containing ATP, Peptide and PT66, and subsequent shaking. The proceeding of this reaction is immediately monitored using time resolved fluorescence spectroscopy in a suitable well plate reader.
(§5) The IC50-values can be obtained from the reaction rates by using a non-linear curve fit (Excelfit).

Assay [1] has as its target T2, Src (p60^c-src, partially purified) (Homo sapiens, UniProt P12931).
T2 construct: purchased Upstate (UBI)
Put plainly: SRC-Inhibitor-Assay (time-resolved fluorescence), Src enzyme. The settings on record: ATP 5 μM, peptide 10 μM, enzyme 2.5 U/ml, pre-incubation 15 min at 15° C. It counts as biochemical. The protocol: as §1, §2, §3, §4, §5

T1 sequence (P06239 whole entry, species assumed): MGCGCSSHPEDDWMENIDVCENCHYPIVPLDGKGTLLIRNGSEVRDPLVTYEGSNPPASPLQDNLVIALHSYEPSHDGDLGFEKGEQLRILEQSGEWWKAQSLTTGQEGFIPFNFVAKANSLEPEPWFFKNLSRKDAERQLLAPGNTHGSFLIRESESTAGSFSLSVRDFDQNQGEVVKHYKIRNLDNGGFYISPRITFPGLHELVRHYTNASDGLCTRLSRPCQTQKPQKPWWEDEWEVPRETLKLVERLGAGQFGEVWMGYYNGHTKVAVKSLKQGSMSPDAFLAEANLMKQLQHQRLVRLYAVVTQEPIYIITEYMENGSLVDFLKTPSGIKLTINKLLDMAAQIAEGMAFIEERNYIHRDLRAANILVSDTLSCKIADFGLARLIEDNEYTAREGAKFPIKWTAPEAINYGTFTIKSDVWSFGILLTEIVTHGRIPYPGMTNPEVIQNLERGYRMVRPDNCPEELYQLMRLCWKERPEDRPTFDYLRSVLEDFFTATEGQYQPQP
T2 sequence (P12931 whole entry, species assumed): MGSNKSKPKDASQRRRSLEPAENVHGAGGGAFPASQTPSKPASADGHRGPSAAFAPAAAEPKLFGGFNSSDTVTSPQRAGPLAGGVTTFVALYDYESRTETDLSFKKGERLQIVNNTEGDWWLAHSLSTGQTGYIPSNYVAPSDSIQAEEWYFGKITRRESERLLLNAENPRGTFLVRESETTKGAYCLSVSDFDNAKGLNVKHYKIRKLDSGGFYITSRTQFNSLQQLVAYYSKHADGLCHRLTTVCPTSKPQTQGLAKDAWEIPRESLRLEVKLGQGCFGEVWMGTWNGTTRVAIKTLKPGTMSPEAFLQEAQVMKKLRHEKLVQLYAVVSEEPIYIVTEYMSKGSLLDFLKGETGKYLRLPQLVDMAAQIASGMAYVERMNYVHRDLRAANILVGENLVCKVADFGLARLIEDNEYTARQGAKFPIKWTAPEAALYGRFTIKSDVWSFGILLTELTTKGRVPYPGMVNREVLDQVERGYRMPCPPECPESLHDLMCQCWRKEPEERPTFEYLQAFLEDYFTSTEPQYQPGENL

With `NC(=O)c1c[nH]nc1NC(=O)c1nc2nc(Nc3ccc(F)cc3)ncc2cc1-c1ccccc1Br` [Example 3-42, 6-(2-Bromo-phenyl)-2-(4-fluoro-phenylamino)-pyrido[2,3-d]pyrimidine-7-carboxylic acid (4-carbamoyl-1H-pyrazol-3-yl)-amide], the IC50 (as a rule, the concentration that inhibits the measured activity by half) was 694 nM against Lck (p56^lck, active) and 56.3 nM in assay [1].
Taken in the same sequence, the figures for `O=C(NCC[S+]([O-])CCO)c1nc2nc(Nc3ccc(F)cc3)ncc2cc1-c1ccccc1Br` (stereo not drawn) [Example 3-43, 6-(2-Bromo-phenyl)-2-(4-fluoro-phenylamino)-pyrido[2,3-d]pyrimidine-7-carboxylic acid [2-(2-hydroxy-ethanesulfinyl)-ethyl]-amide] were 809 nM and 129 nM.
With `CNCCNC(=O)c1nc2nc(Nc3ccc(N4CCOCC4)cc3)ncc2cc1-c1ccccc1Br` [Example 3-44, 6-(2-Bromo-phenyl)-2-(4-morpholin-4-yl-phenylamino)-pyrido[2,3-d]pyrimidine-7-carboxylic acid (2-methylamino-ethyl)-amide], the IC50 on Lck (p56^lck, active) is 2.5 nM; in assay [1], 1 nM.
As for `O=C(NCCO)c1nc2nc(Nc3ccc(F)cc3)ncc2cc1-c1ccccc1Br` [Example 3-45, 6-(2-Bromo-phenyl)-2-(4-fluoro-phenylamino)-pyrido[2,3-d]pyrimidine-7-carboxylic acid (2-hydroxy-ethyl)-amide], the concentration for half-maximal inhibition (IC50) at Lck (p56^lck, active) was 155 nM; in assay [1], 21.5 nM.
As for `CN(C)CC(=O)NNC(=O)c1nc2nc(Nc3ccc(F)cc3)ncc2cc1-c1ccccc1Br` [Example 3-46, 6-(2-Bromo-phenyl)-2-(4-fluoro-phenylamino)-pyrido[2,3-d]pyrimidine-7-carboxylic acid N′-(2-dimethylamino-acetyl)-hydrazide], the IC50 at Lck (p56^lck, active) is 38.1 nM; in assay [1], 16.8 nM.
For `O=C(N[C@H]1CCCNC1)c1nc2nc(Nc3ccc(F)cc3)ncc2cc1-c1ccccc1Br` [Example 3-47, (S)-6-(2-Bromo-phenyl)-2-(4-fluoro-phenylamino)-pyrido[2,3-d]pyrimidine-7-carboxylic acid piperidin-3-ylamide], the IC50 on Lck (p56^lck, active) is 27.5 nM; in assay [1] it was 6.6 nM.
`O=C(NC[C@H]1CCCN1)c1nc2nc(Nc3ccc(F)cc3)ncc2cc1-c1ccccc1Br` [Example 3-48, (R)-6-(2-Bromo-phenyl)-2-(4-fluoro-phenylamino)-pyrido[2,3-d]pyrimidine-7-carboxylic acid (pyrrolidin-2-ylmethyl)-amide]: the concentration for half-maximal inhibition (IC50) came to 38.1 nM on Lck (p56^lck, active) and 2.1 nM in assay [1].
Taken in the same sequence, the figures for `O=C(Nc1cc[nH]n1)c1nc2nc(Nc3ccc(F)cc3)ncc2cc1-c1ccccc1Br` [Example 3-49, 6-(2-Bromo-phenyl)-2-(4-fluoro-phenylamino)-pyrido[2,3-d]pyrimidine-7-carboxylic acid (1H-pyrazol-3-yl)-amide] were 7.3 nM and 4.3 nM.
Taken in the same sequence, the figures for `N#Cc1nc2nc(Nc3ccc(N4CCOCC4)cc3)ncc2cc1-c1ccccc1Br` [Example 4-1, 6-(2-Bromo-phenyl)-2-(4-morpholin-4-yl-phenylamino)-pyrido[2,3-d]pyrimidine-7-carbonitrile; compound with trifluoro-acetic acid] were 20.1 nM and 6.5 nM.
For the compound `CCN(CC)CCOc1ccc(Nc2ncc3cc(-c4ccccc4Br)c(C#N)nc3n2)cc1` [Example 4-2, 6-(2-Bromo-phenyl)-2-[4-(2-diethylamino-ethoxy)-phenylamino]-pyrido[2,3-d]pyrimidine-7-carbonitrile], the IC50 at Lck (p56^lck, active) is 5.1 nM; in assay [1], 1.8 nM.
Taken in the same sequence, the figures for `N#Cc1nc2nc(Nc3ccc(OCCO)cc3)ncc2cc1-c1ccccc1Br` [Example 4-3, 6-(2-Bromo-phenyl)-2-[4-(2-hydroxy-ethoxy)-phenylamino]-pyrido[2,3-d]pyrimidine-7-carbonitrile] were 49.9 nM and 4.5 nM.
Taken in the same sequence, the figures for `CCNCCOc1ccc(Nc2ncc3cc(-c4ccccc4Br)c(C#N)nc3n2)cc1` [Example 4-4, 6-(2-Bromo-phenyl)-2-[4-(2-ethylamino-ethoxy)-phenylamino]-pyrido[2,3-d]pyrimidine-7-carbonitrile] were 4.2 nM and 1.1 nM.
Taken in the same sequence, the figures for `C[S+]([O-])c1cccc(Nc2ncc3cc(-c4ccccc4Br)c(C#N)nc3n2)c1` (stereo not drawn) [Example 4-5, 6-(2-Bromo-phenyl)-2-(3-methanesulfinyl-phenylamino)-pyrido[2,3-d]pyrimidine-7-carbonitrile] were 52.1 nM and 3.5 nM.
Regarding `N#Cc1nc2nc(Nc3cccc(S(=O)(=O)CCO)c3)ncc2cc1-c1ccccc1Br` [Example 4-6, 6-(2-Bromo-phenyl)-2-[3-(2-hydroxy-ethanesulfonyl)-phenylamino]-pyrido[2,3-d]pyrimidine-7-carbonitrile], the IC50 against Lck (p56^lck, active) came out at 99.7 nM; in assay [1] it was 16.2 nM.
In the case of `O=C(NCCO)c1nc2nc(Nc3cccc(CO)c3)ncc2cc1-c1ccccc1Br` [Example 7-4, 6-(2-bromo-phenyl)-2-(3-hydroxymethyl-phenylamino)-pyrido[2,3-d]pyrimidine-7-carboxylic acid (2-hydroxy-ethyl)-amide], the IC50 against Lck (p56^lck, active) was 99.1 nM; in assay [1] it was 30.9 nM.
Taken in the same sequence, the figures for `NS(=O)(=O)CCNC(=O)c1nc2nc(Nc3ccc4c(c3)S(=O)(=O)CCO4)ncc2cc1-c1ccccc1Br` [Example 7-13, 6-(2-bromo-phenyl)-2-(4,4-dioxo-3,4-dihydro-2H-4lambda*6*-benzo[1,4]oxathiin-6-ylamino)-pyrido[2,3-d]pyrimidine-7-carboxylic acid (2-sulfamoyl-ethyl)-amide] were 232 nM and 11.3 nM.
Take `CS(=O)(=O)NCCNC(=O)c1nc2nc(Nc3ccc(N4CCOCC4)cc3)ncc2cc1-c1ccccc1Br` [Example 7-15, 6-(2-bromo-phenyl)-2-(4-morpholin-4-yl-phenylamino)-pyrido[2,3-d]pyrimidine-7-carboxylic acid (2-methanesulfonylamino-ethyl)-amide]: the half-inhibitory concentration (IC50) stood at 11.4 nM on Lck (p56^lck, active) and 0.4 nM in assay [1].
For the compound `CS(=O)(=O)NCCNC(=O)c1nc2nc(Nc3cccc(NS(C)(=O)=O)c3)ncc2cc1-c1ccccc1Br` [Example 7-17, 6-(2-bromo-phenyl)-2-(3-methanesulfonylamino-phenylamino)-pyrido[2,3-d]pyrimidine-7-carboxylic acid (2-methanesulfonylamino-ethyl)-amide], the 50% inhibitory concentration (IC50) at Lck (p56^lck, active) is 11.8 nM; in assay [1], 3.5 nM.
Turning to `CS(=O)(=O)NCCNC(=O)c1nc2nc(Nc3ccc(OCCO)cc3)ncc2cc1-c1ccccc1Br` [Example 7-18, 6-(2-bromo-phenyl)-2-[4-(2-hydroxy-ethoxy)-phenylamino]-pyrido[2,3-d]pyrimidine-7-carboxylic acid (2-methanesulfonylamino-ethyl)-amide], the 50% inhibitory concentration (IC50) at Lck (p56^lck, active) was 18.8 nM; in assay [1], 8.8 nM.
`CN1CCN(c2ccc(Nc3ncc4cc(-c5ccccc5Br)c(C(=O)NCCNS(C)(=O)=O)nc4n3)cc2)CC1` [Example 7-19, 6-(2-bromo-phenyl)-2-[4-(4-methyl-piperazin-1-yl)-phenylamino]-pyrido[2,3-d]pyrimidine-7-carboxylic acid (2-methanesulfonylamino-ethyl)-amide]: the 50% inhibitory concentration (IC50) at Lck (p56^lck, active) was determined as 2.1 nM; in assay [1], 1 nM.
Taken in the same sequence, the figures for `COc1cccc(Nc2ncc3cc(-c4ccccc4Br)c(C(=O)NCCNS(C)(=O)=O)nc3n2)c1` [Example 7-20, 6-(2-bromo-phenyl)-2-(3-methoxy-phenylamino)-pyrido[2,3-d]pyrimidine-7-carboxylic acid (2-methanesulfonylamino-ethyl)-amide] were 11.1 nM and 6.1 nM.
